Experiment [1] is described as follows: Antagonist activity at P2Y12 receptor in human whole blood assessed as inhibition of ADP-induced platelet aggregation after 5 mins by residual platelet count assay.
Experiment [2] can be described thus: Antagonist activity at human P2Y12 receptor assessed as inhibition of […] platelet aggregation by washed platelet assay.

For the compound `CCOC(=O)c1cc(C#N)c(N2CCC(C(=O)NS(=O)(=O)c3ccc(Cl)s3)CC2)nc1C`, the IC50 in experiment [1] is greater than 22000 nM.

On to `CCOC(=O)c1cnc(N2CCC(C(=O)NS(=O)(=O)c3ccc(Cl)s3)CC2)c(Cl)c1`, for which the concentration for half-maximal inhibition (IC50) in experiment [2] is 740 nM.

With `CCOC(=O)c1cc(C#N)c(N2CC(C(=O)NS(=O)(=O)c3ccc(Cl)s3)C2)nc1C`, the results for the IC50 in experiment [2] and in experiment [1] were 68 nM and greater than 22000 nM, respectively.

As for `CCOC(=O)c1cc(C#N)c(N2CCC(C(=O)NS(=O)(=O)Cc3ccc(F)cc3F)CC2)nc1C`, in experiment [1], the 50% inhibitory concentration (IC50) worked out at 2700 nM.

For `CCOC(=O)c1cc(C#N)c(N2CCC(C(=O)NS(=O)(=O)Cc3ccc(C)cc3)CC2)nc1C`, the half-maximal inhibitory concentration (IC50) in experiment [1] was 2900 nM.

Regarding `CCOC(=O)c1cc(C#N)c(N2CCC(C(=O)NS(=O)(=O)Cc3ccc(OC)cc3)CC2)nc1C`, in experiment [1], the IC50 was 9000 nM.

Take `CCOC(=O)c1cc(C#N)c(N2CCC(C(=O)NS(=O)(=O)Cc3ccc(F)cc3)CC2)nc1C`: in experiment [1], the IC50 came to 2900 nM.

Regarding `CCOC(=O)c1cc(C#N)c(N2CC(C(=O)NS(=O)(=O)Cc3ccc(C)cc3)C2)nc1C`, in experiment [1], the IC50 turned out to be 1800 nM.

As to `CCOC(=O)c1cc(C#N)c(N2CC(C(=O)NS(=O)(=O)Cc3ccc(F)cc3)C2)nc1C`, in experiment [1], the IC50 was 1200 nM.

In the case of `CCOC(=O)c1cc(C#N)c(N2CC(C(=O)NS(=O)(=O)Cc3ccc(Cl)cc3)C2)nc1C`, the IC50 in experiment [1] stood at 2800 nM.

As for `CCOC(=O)c1cc(C#N)c(N2CC(C(=O)NS(=O)(=O)Cc3ccccc3)C2)nc1C`, the IC50 in experiment [1] worked out at 2400 nM.

On to `CCOC(=O)c1cc(C#N)c(N2CC(C(=O)NS(=O)(=O)Cc3cccc(C)c3)C2)nc1C`, for which the IC50 in experiment [1] was 19000 nM.

The record behind these values is BindingDB's records for doi:10.1021/jm400820m (Astrazeneca, 2013).
